Values of other authors as cited in article PMC11317963 (Neural Regeneration Research, 2024).

Assays:
[1] = system: permanent middle cerebral artery occlusion model; conditions: compared with VEGF; ref Pignataro et al., 2015
[2] = ref Diana et al., 2008; Finetti et al., 2012
[3] = ref Zhang et al., 2000

Substance | vessel permeability [1] | thermal stability [2] | half-life in vivo [3]
KLTWQELYQLKYKGI [QK] | decrease vessel permeability compared with VEGF | relatively high thermal stability | –
VEGF | – | – | relatively short
